{
  "source": "patent US20220195384A1",
  "about": "“COMPOSITION FOR PROMOTING PRODUCTION OF STEM CELL-DERIVED EXOSOMES AND INCREASING STEMNESS” (BREXOGEN INC., priority 2019, published 2022)",
  "assay_type_in_all_cases": "cell-based",
  "key": {"[1]": {"system": "primary umbilical cord-derived mesenchymal stem cells", "assay": "Number of exosomes by nanoparticle tracking assay (NanoSight NS300)", "details": "for No. of exosome particles, yield per 10^6 cells: then 72 h exosome-free FBS medium", "description": "(§1) In a culture medium [high glucose DMEM (Gibco, Cat no. 11995-065); 10% fetal bovine serum (HyClone), 1% MEM non-essential amino acids solution (100×) (Gibco, Cat no. 11140-050)] containing 20 nM of exendin-4, primary umbilical cord-derived mesenchymal stem cells (ATCC No. PCS-500-010; Lot No. 63822428) were cultured for one week.\n(§2) After completion of culturing, the mesenchymal stem cells pretreated with exendin-4 were washed and additionally cultured for 72 hours in a culture medium supplemented with 10% fetal bovine serum (FBS) free of exosomes. The reason of employing exosome-free FBS was to prevent FBS-derived exosomes other than those secreted from the cells from being incorporated because generally used FBS contained a large amount of exosomes derived from bovine serum.\n(§3) After 72 hours of culturing, the culture medium in which the pretreated mesenchymal stem cells were cultured was taken and centrifuged at 300×g for 10 min to remove residual cells and cell debris. The supernatant was filtered through a 0.22 μm filter, followed by centrifugation at 10,000×g and 4° C. for 70 min in a high-speed centrifuge. The supernatant thus obtained was subjected again to ultracentrifugation at 100,000×g and 4° C. for 90 min. The exosomes obtained as a pellet were diluted in PBS (phosphate buffered saline) before use in the following experiments.\nas §1, with “10” for “20”, “PMA,” for “exendin-4,”\nas §2, with “PMA” for “exendin-4”\nas §1, with “10 ng/mL interferon-γ,” for “20 nM of exendin-4,”\nas §2, with “interferon-γ” for “exendin-4”\nas §1, with “10 μM” for “20 nM”, “tetrandrine,” for “exendin-4,”\nas §2, with “tetrandrine” for “exendin-4”, “serum. […]” for “serum.”"}, "[2]": {"system": "primary umbilical cord-derived mesenchymal stem cells", "assay": "Stem cell proliferation (CCK, absorbance 450 nm) after pretreatment", "details": "24 h culture, CCK 4 h", "description": "as §1\nas §1, with “10” for “20”, “PMA,” for “exendin-4,”\nas §1, with “10 ng/mL interferon-γ,” for “20 nM of exendin-4,”\nas §1, with “10 μM” for “20 nM”, “tetrandrine,” for “exendin-4,”\nas §1, with “10 μg/mL hyaluronic acid,” for “20 nM of exendin-4,”\nas §1, with “30” for “20”, “substance P,” for “exendin-4,”\nas §1, with “10” for “20”, “resveratrol,” for “exendin-4,”\nas §1, with “10 μM” for “20 nM”, “lanifibranor,” for “exendin-4,”\n(§4) Mesenchymal stem cells and the exendin-4-pretreated mesenchymal stem cells of the Example were each seeded at a density of 3,000 cells/well into 96-well plates containing 100 μL of a culture medium [high glucose DMEM (Gibco, Cat no. 11995-065), 10% fetal bovine serum (HyClone), 1% MEM non-essential amino acids solution (100×) (Gibco, Cat no. 11140-050)] per well and cultured for 24 hours in a CO2 incubator. Then, CCK solution (10 μL/well) was added, and incubation was continued for 4 hours in the CO2 incubator, followed by reading absorbance at a wavelength of 450 nm (420-480 nm) to determine proliferation.\nas §4, with “PMA-pretreated” for “exendin-4-pretreated”, “proliferation. […]” for “proliferation.”"}, "[3]": {"system": "primary umbilical cord-derived mesenchymal stem cells", "assay": "Content of exosomal RNA (NanoDrop)", "details": "for Exosomal RNA, yield per 10^6 cells: then 72 h exosome-free FBS medium", "description": "as §1, §2, §3\nas §1, with “10” for “20”, “PMA,” for “exendin-4,”\nas §2, with “PMA” for “exendin-4”\nas §1, with “10 ng/mL interferon-γ,” for “20 nM of exendin-4,”\nas §2, with “interferon-γ” for “exendin-4”\nas §1, with “10 μM” for “20 nM”, “tetrandrine,” for “exendin-4,”\nas §2, with “tetrandrine” for “exendin-4”, “serum. […]” for “serum.”"}, "[4]": {"system": "primary umbilical cord-derived mesenchymal stem cells", "assay": "Stem cell stemness: colony formation (CFU-F, crystal violet) after pretreatment", "details": "for colonies formed (each 50 or more cells): 1,000 cells/dish, 21 days; for CFU-F increase: vs non-treated", "description": "as §1\nas §1, with “10” for “20”, “PMA,” for “exendin-4,”\nas §1, with “10 ng/mL interferon-γ,” for “20 nM of exendin-4,”\nas §1, with “10 μM” for “20 nM”, “tetrandrine,” for “exendin-4,”\nas §1, with “10 μg/mL hyaluronic acid,” for “20 nM of exendin-4,”\nas §1, with “30” for “20”, “substance P,” for “exendin-4,”\nas §1, with “10” for “20”, “resveratrol,” for “exendin-4,”\nas §1, with “10 μM” for “20 nM”, “lanifibranor,” for “exendin-4,”\nMesenchymal stem cells and the exendin-4-pretreated mesenchymal stem cells of the Example were each seeded at a density of 1,000 cells/dish into 100-mm cell culture dishes containing […] of a culture medium [high glucose DMEM (Gibco, Cat no. 11995-065), 10% fetal bovine serum (HyClone), 1% MEM non-essential amino acids solution (100×) (Gibco, Cat no. 11140-050)] per dish and cultured for 21 days. The cell-attached dishes were washed twice with PBS, followed by fixation with 95% methanol at room temperature for about 2 min. The fixed cells were washed three times with PBS and stained with 0.5% crystal violet [(sigma, C-3886, USA) […], methanol 100 ml] for 5 min. After water washing and drying at room temperature, colonies, each composed of 50 or more cells, were counted for comparison.\nMesenchymal stem cells and the PMA-pretreated mesenchymal stem cells of the Example were each seeded at a density of 1,000 cells/dish into 100-mm cell culture dishes containing […] of a culture medium [high glucose DMEM (Gibco, Cat no. 11995-065), 10% fetal bovine serum (HyClone), 1% MEM non-essential amino acids solution (100×) (Gibco, Cat no. 11140-050)] per dish and cultured for 21 days. The cell-attached dishes were washed twice with PBS, followed by fixation with 95% methanol at room temperature for about 2 min. […]"}, "[5]": {"system": "primary umbilical cord-derived mesenchymal stem cells", "assay": "Content of exosomal protein (Bradford analysis, 595 nm)", "details": "for Exosomal protein, yield per 10^6 cells: then 72 h exosome-free FBS medium, non-treated 2.0", "description": "as §1, §2, §3\nas §1, with “10” for “20”, “PMA,” for “exendin-4,”\nas §2, with “PMA” for “exendin-4”\nas §1, with “10 ng/mL interferon-γ,” for “20 nM of exendin-4,”\nas §2, with “interferon-γ” for “exendin-4”\nas §1, with “10 μM” for “20 nM”, “tetrandrine,” for “exendin-4,”\nas §2, with “tetrandrine” for “exendin-4”, “serum. […]” for “serum.”"}, "[6]": {"details": "10 μM lanifibranor pretreatment one week"}, "[7]": {"details": "10 nM resveratrol pretreatment one week"}, "[8]": {"details": "10 nM PMA pretreatment one week"}, "[9]": {"details": "30 nM substance P pretreatment one week"}},
  "note": "Where no end group is shown, it is not given here.",
  "data": [
    {"compound": "O=C(O)CCCc1cc2cc(Cl)ccc2n1S(=O)(=O)c1ccc2ncsc2c1", "note": "[lanifibranor]", "values": [
      {"measurement": "fold more exosomes than non-treated mesenchymal stem cells", "setting": "[1]; [6]", "value": "about 4.95 fold"},
      {"measurement": "No. of exosome particles, yield per 10^6 cells", "setting": "[1]; 10 μM lanifibranor pretreatment one week, non-treated 2.30", "value": "11.4 10^9"},
      {"measurement": "increase in proliferation relative to non-treated mesenchymal stem cells", "setting": "[2]; [6]", "value": "about 181%"},
      {"measurement": "proliferation ratio relative to non-treated mesenchymal stem cells (1)", "setting": "[2]; [6]", "value": 1.81},
      {"measurement": "fold greater exosomal RNA than non-treated mesenchymal stem cells", "setting": "[3]; [6]", "value": "about 4.1 fold"},
      {"measurement": "Exosomal RNA, yield per 10^6 cells", "setting": "[3]; 10 μM lanifibranor pretreatment one week, non-treated 27.00", "value": 110.34, "unit": "ng"},
      {"measurement": "colonies formed (each 50 or more cells)", "setting": "[4]; 10 μM lanifibranor pretreatment one week, non-treated 40", "value": 56.7, "unit": "colonies"},
      {"measurement": "CFU-F increase", "setting": "[4]; [6]", "value": "about 142%"},
      {"measurement": "fold greater exosomal proteins than non-treated mesenchymal stem cells", "setting": "[5]; [6]", "value": "about 4.6 fold"},
      {"measurement": "Exosomal protein, yield per 10^6 cells", "setting": "[5]; [6]", "value": 9.2, "unit": "ug"}
    ]},
    {"compound": "Oc1ccc(C=Cc2cc(O)cc(O)c2)cc1", "note": "[resveratrol]", "values": [
      {"measurement": "fold more exosomes than non-treated mesenchymal stem cells", "setting": "[1]; [7]", "value": "about 5.2 fold"},
      {"measurement": "No. of exosome particles, yield per 10^6 cells", "setting": "[1]; 10 nM resveratrol pretreatment one week, non-treated 2.3", "value": "11.9 10^9"},
      {"measurement": "increase in proliferation relative to non-treated mesenchymal stem cells", "setting": "[2]; [7]", "value": "about 322%"},
      {"measurement": "proliferation ratio relative to non-treated mesenchymal stem cells (1)", "setting": "[2]; [7]", "value": 3.22},
      {"measurement": "fold greater exosomal RNA than non-treated mesenchymal stem cells", "setting": "[3]; [7]", "value": "about 4.7 fold"},
      {"measurement": "Exosomal RNA, yield per 10^6 cells", "setting": "[3]; 10 nM resveratrol pretreatment one week, non-treated 31.0", "value": 145.15, "unit": "ng"},
      {"measurement": "colonies formed (each 50 or more cells)", "setting": "[4]; 10 nM resveratrol pretreatment one week, non-treated 28.6", "value": 311, "unit": "colonies"},
      {"measurement": "CFU-F increase", "setting": "[4]; [7]", "value": "about 1,087%"},
      {"measurement": "fold greater exosomal proteins than non-treated mesenchymal stem cells", "setting": "[5]; [7]", "value": "about 5.4 fold"},
      {"measurement": "Exosomal protein, yield per 10^6 cells", "setting": "[5]; [7]", "value": 10.78, "unit": "ug"}
    ]},
    {"compound": "CCCCCCCCCCCCCC(=O)O[C@@H]1[C@@H](C)[C@@]2(O)[C@@H](C=C(CO)C[C@]3(O)C(=O)C(C)=C[C@@H]23)[C@@H]2C(C)(C)[C@]12OC(C)=O", "note": "[PMA, phorbol 12-myristate 13-acetate]", "values": [
      {"measurement": "fold more exosomes than non-treated mesenchymal stem cells", "setting": "[1]; [8]", "value": "about 5.2 fold"},
      {"measurement": "No. of exosome particles, yield per 10^6 cells", "setting": "[1]; 10 nM PMA pretreatment one week, non-treated 2.3", "value": "11.90 10^9"},
      {"measurement": "increase in proliferation relative to non-treated mesenchymal stem cells", "setting": "[2]; [8]", "value": "about 220%"},
      {"measurement": "proliferation ratio relative to non-treated mesenchymal stem cells (1)", "setting": "[2]; [8]", "value": 2.2},
      {"measurement": "fold greater exosomal RNA than non-treated mesenchymal stem cells", "setting": "[3]; [8]", "value": "about 4 fold"},
      {"measurement": "Exosomal RNA, yield per 10^6 cells", "setting": "[3]; 10 nM PMA pretreatment one week, non-treated 31.0", "value": 125.0, "unit": "ng"},
      {"measurement": "colonies formed (each 50 or more cells)", "setting": "[4]; 10 nM PMA pretreatment one week, non-treated 28.6", "value": 285.7, "unit": "colonies"},
      {"measurement": "CFU-F increase", "setting": "[4]; [8]", "value": "about 996.5%"},
      {"measurement": "fold greater exosomal proteins than non-treated mesenchymal stem cells", "setting": "[5]; [8]", "value": "about 5 fold"},
      {"measurement": "Exosomal protein, yield per 10^6 cells", "setting": "[5]; [8]", "value": 10.0, "unit": "ug"}
    ]},
    {"compound": "substance P (RPKPQQFFGLM; not fully specified; ends and bridges not checked; UniProt P20366 58-68, looked up) [undecapeptide of the tachykinin neuropeptide family acting on NK1 receptor; SubsP MSC-Exo = exosomes of treated mesenchymal stem cells]", "values": [
      {"measurement": "fold more exosomes than non-treated mesenchymal stem cells", "setting": "[1]; [9]", "value": "about 4.3 fold"},
      {"measurement": "No. of exosome particles, yield per 10^6 cells", "setting": "[1]; 30 nM substance P pretreatment one week, non-treated 2.3", "value": "9.93 10^9"},
      {"measurement": "increase in proliferation relative to non-treated mesenchymal stem cells", "setting": "[2]; [9]", "value": "about 290%"},
      {"measurement": "proliferation ratio relative to non-treated mesenchymal stem cells (1)", "setting": "[2]; [9]", "value": 2.9},
      {"measurement": "fold greater exosomal RNA than non-treated mesenchymal stem cells", "setting": "[3]; [9]", "value": "about 4.9 fold"},
      {"measurement": "Exosomal RNA, yield per 10^6 cells", "setting": "[3]; 30 nM substance P pretreatment one week, non-treated 31.0", "value": 150.84, "unit": "ng"},
      {"measurement": "colonies formed (each 50 or more cells)", "setting": "[4]; 30 nM substance P pretreatment one week, non-treated 28.7", "value": 116, "unit": "colonies"},
      {"measurement": "CFU-F increase", "setting": "[4]; [9]", "value": "about 404%"},
      {"measurement": "fold greater exosomal proteins than non-treated mesenchymal stem cells", "setting": "[5]; [9]", "value": "about 5.2 fold"},
      {"measurement": "Exosomal protein, yield per 10^6 cells", "setting": "[5]; [9]", "value": 10.37, "unit": "ug"}
    ]}
  ]
}
